In US6740662B1, “Naphthyridine derivatives” (Yamanouchi Pharmaceutical Co., Ltd., priority 1999, dated 2004):
Where a name gives a salt, the structure may show the parent alone.

Experiments:
[1] = Oral absorbability and pharmacokinetic profile evaluation test using type IV PDE inhibitory activity as the index; format: in vivo; conditions: orally administered to male Fisher rat at 3 mg/kg; plasma type IV PDE inhibitory activity as index; in comparison with a comparative compound
Procedure: Test Example 3. Oral absorbability and pharmacokinetic profile evaluation test using type IV PDE inhibitory activity as the index
The following assay was carried out in order to evaluate oral absorbability and pharmacokinetic profiles of the type IV PDE-inhibiting compounds of the invention.
1) Each test compound suspended in purified water containing 0.5% methyl cellulose was orally administered to a seven-week-old male Fisher rat at a dose of 3 mg/kg. In the control group, a solvent (0.5% methyl cellulose in purified water, 3 ml/kg) was administered in the same manner. After the oral administration, blood samples were periodically collected in the presence of heparin from the caudal vein of each rat under ether anesthesia, and plasma was prepared in the usual way.
2) The plasma prepared from each rat administered with the test compound or solvent was added to the type IV PDE measuring system shown in the above Test Example 1 so as to be a final concentration of 0.1%, and the type IV PDE inhibitory activity was measured.

[2] = test system: P450 drug metabolizing enzyme present in the liver microsome; test: In vitro drug metabolism test using liver microsome; format: in vitro ADME; conditions: human and rat liver microsome, test compound 20 ng/ml, 37° C., 10, 20 and 30 minutes, residual ratio
Procedure: 1) Human and rat liver microsome suspension (human microsome: Xenotech, rat microsome: Charles River) was diluted with 100 mM Na-K phosphate buffer (pH 7.4) to a protein concentration of 0.5 mg/ml. To a 100 μl portion of this suspension were added 2 μl of a test compound solution (a 10 μg/ml acetonitrile solution), 500 μl of 200 mM Na-K phosphate buffer (pH 7.4), 50 μl of 1 mM EDTA-NaOH (pH 7.4) and 200 μl of purified water, thereby preparing a substrate solution (concentration in the reaction solution: liver microsome (as the protein content) 0.05 mg/ml, test compound 20 ng/ml, 100 mM Na-K phosphate buffer, 0.1 mM EDTA-NaOH).
2) An NADPH production system was prepared by mixing 42 mg of NADP, 5 ml of 100 mM […] (G6P) and 5 ml of 100 mM MgCl2, and adding 57 μl of G6P dehydrogenase (about 1750 U/5 mg/ml) to the mixture. This was heated at 37° C. for 5 minutes and then ice-cooled until its use.
3) A 900 μl portion of the substrate solution was pre-incubated at 37° C. for 5 minutes, and then 100 μl of the NADPH production system was added thereto, following by reaction at 37° C. for 10, 20 and 30 minutes. After termination of the reaction by adding 2 ml of ethyl acetate, the whole was ice-cooled. In this connection, a control sample was prepared by adding 100 μl of the NADPH production system after adding 2 ml of ethyl acetate (0 minute reaction).
4) To the reaction solution was added 100 μl of an internal standard substance having a predetermined concentration (an acetonitrile solution), 1 ml of 0.5 M phosphoric acid and 2 ml of ethyl acetate, followed by shaking for 10 minutes. After 10 minutes of centrifugation at 2,500 rpm, the ethyl acetate layer was separated and evaporated to dryness, and the residue was dissolved in 100 μl of an HPLC mobile phase solvent. The test compound was eluted after about 12 minutes, and the internal standard substance after about 16 minutes, under the following conditions. (HPLC measuring conditions mobile phase: acetonitrile/20 mM ammonium acetate=2:3 (v/v), column: Discovery RP Amide C16, 4.6×35 mm (SUPELCO), flow rate: 0.8 ml/min., detection: UV 286 nm)
5) A ratio (residual ratio) of the peak height ratio after 10, 20 or 30 minutes of the reaction to the peak height ratio of each test compound in the control (peak height ratio to the internal standard substance) was calculated.

Structure (SMILES) | melting point | oral absorbability and metabolic stability [1] | metabolism by the P450 drug metabolizing enzyme present in the liver microsome [2]
CCn1c(=O)c(C2CCNCC2)c(-c2cccc(Cl)c2)c2ccc(C)nc21 (as salt: fumarate) [Example 28, 4-(3-chlorophenyl)-1-ethyl-7-methyl-3-(piperidin-4-yl)-1,8-naphthyridin-2(1H)-one monofumarate] | 225 to 227 °C | – | –
CCn1c(=O)c(CCC(=N)N)c(-c2cccc(Cl)c2)c2ccc(C)nc21 (as salt: hydrochloride) [Example 40, 3-(2-amidinoethyl)-4-(3-chlorophenyl)-1-ethyl-7-methyl-1,8-naphthyridin-2(1H)-one monohydrochloride] | 228 to 230 °C | – | –
CCn1c(=O)c(CCCC(=O)O)c(-c2cccc(Cl)c2)c2ccc(C)nc21 (hydrate or solvate) [Example 61, 4-[4-(3-chlorophenyl)-1-ethyl-7-methyl-2-oxo-1,2-dihydro-1,8-naphthyridin-3-yl]butanoic acid] | 146 to 148 °C | – | –
CCOC(=O)c1c(-c2cccc(Cl)c2)c2ccc(C)nc2n(CC)c1=O [Example 1, ethyl 4-(3-chlorophenyl)-1-ethyl-7-methyl-2-oxo-1,2-dihydro-1,8-naphthyridin-3-carboxylate] | 119 to 121 °C | – | –
CCn1c(=O)c(CCC(=O)O)c(-c2cccc(Cl)c2)c2ccc(C)nc21 [Example 2, 3-[4-(3-chlorophenyl)-1-ethyl-7-methyl-2-oxo-1,2-dihydro-1,8-naphthyridin-3-yl]propanoic acid] | – | good oral absorbability and metabolic stability | hardly metabolized
CCn1c(=O)c(C(N)=O)c(-c2cccc(Cl)c2)c2ccc(C)nc21 [Example 4, 4-(3-chlorophenyl)-1-ethyl-7-methyl-2-oxo-1,2-dihydro-1,8-naphthyridin-3-carboxamide] | 249 to 252 °C | – | –
CCn1c(=O)c(CCC(=O)N(C)C)c(-c2cccc(Cl)c2)c2ccc(C)nc21 [Example 6, 3-[4-(3-chlorophenyl)-1-ethyl-7-methyl-2-oxo-1,2-dihydro-1,8-naphthyridin-3-yl]-N,N-dimethylpropanamide] | 134 to 136 °C | – | –
CCOC(=O)Nc1c(-c2cccc(Cl)c2)c2ccc(C)nc2n(CC)c1=O [Example 9, ethyl N-[4-(3-chlorophenyl)-1-ethyl-7-methyl-2-oxo-1,2-dihydro-1,8-naphthyridin-3-yl]carbamate] | 183 to 184 °C | – | –
CCn1c(=O)c(N)c(-c2cccc(Cl)c2)c2ccc(C)nc21 [Example 10, 3-amino-4-(3-chlorophenyl)-1-ethyl-7-methyl-1,8-naphthyridin-2(1H)-one] | 167 to 171 °C | – | –
CCn1c(=O)c(CCCNS(C)(=O)=O)c(-c2cccc(Cl)c2)c2ccc(C)nc21 [Example 14, N-{3-[4-(3-chlorophenyl)-1-ethyl-7-methyl-2-oxo-1,2-dihydro-1,8-naphthyridin-3-yl]propyl}methanesulfonamide] | 140 to 141 °C | – | –
CCn1c(=O)c(CCCO)c(-c2cccc(Cl)c2)c2ccc(C)nc21 [Example 16, 4-(3-chlorophenyl)-1-ethyl-3-(3-hydroxypropyl)-7-methyl-1,8-naphthyridin-2(1H)-one] | 109 to 110 °C | – | –
CCn1c(=O)c(-c2cccc(C(=O)O)c2)c(-c2cccc(Cl)c2)c2ccc(C)nc21 [Example 21, 3-[4-(3-chlorophenyl)-1-ethyl-7-methyl-2-oxo-1,2-dihydro-1,8-naphthyridin-3-yl]benzoic acid] | 254 to 256 °C | good oral absorbability and metabolic stability | hardly metabolized
CCn1c(=O)c(C2CCNCC2)c(-c2cccc(Cl)c2)c2ccc(C)nc21 [Example 28, 4-(3-chlorophenyl)-1-ethyl-7-methyl-3-(piperidin-4-yl)-1,8-naphthyridin-2(1H)-one monofumarate] | – | good oral absorbability and metabolic stability | hardly metabolized
CCn1c(=O)c(CCCOC(=O)OC)c(-c2cccc(Cl)c2)c2ccc(C)nc21 [Example 34, 4-(3-chlorophenyl)-1-ethyl-3-[3-(methoxycarbonyloxy)propyl]-7-methyl-1,8-naphthyridin-2(1H)-one] | 92 to 93 °C | – | –
CCn1c(=O)c(CCCOC)c(-c2cccc(Cl)c2)c2ccc(C)nc21 [Example 35, 4-(3-chlorophenyl)-1-ethyl-3-(3-methoxypropyl)-7-methyl-1,8-naphthyridin-2(1H)-one] | 96 to 97 °C | – | –
CCn1c(=O)c(CCN2CCC(C(=O)O)CC2)c(-c2cccc(Cl)c2)c2ccc(C)nc21 [Example 38, 1-{2-[4-(3-chlorophenyl)-1-ethyl-7-methyl-2-oxo-1,2-dihydro-1,8-naphthyridin-3-yl]ethyl}piperidine-4-carboxylic acid] | 142 to 146 °C | – | –
CCn1c(=O)c(CCC(=O)O)c(-c2cccc(Cl)c2)c2ccc(Cl)nc21 [Example 41, 3-[7-chloro-4-(3-chlorophenyl)-1-ethyl-2-oxo-1,2-dihydro-1,8-naphthyridin-3-yl]propanoic acid] | 197 to 199 °C | good oral absorbability and metabolic stability | hardly metabolized
CCn1c(=O)c(CCC(=O)O)c(-c2cccc(Cl)c2)c2ccc(CO)nc21 [Example 42, 3-[4-(3-chlorophenyl)-1-ethyl-7-hydroxymethyl-2-oxo-1,2-dihydro-1,8-naphthyridin-3-yl]propanoic acid] | 157 to 160 °C | – | –
CCn1c(=O)c(CCC(=O)O)c(-c2cccc(Cl)c2)c2ccc(C=NO)nc21 [Example 43, 3-[4-(3-chlorophenyl)-1-ethyl-7-hydroxyiminomethyl-2-oxo-1,2-dihydro-1,8-naphthyridin-3-yl]propanoic acid] | 234 to 238 °C | good oral absorbability and metabolic stability | hardly metabolized
CCn1c(=O)c(CCC(=O)O)c(-c2cccc(Cl)c2)c2ccc(NC)nc21 [Example 44, 3-[4-(3-chlorophenyl)-1-ethyl-7-methylamino-2-oxo-1,2-dihydro-1,8-naphthyridin-3-yl]propanoic acid] | 202 to 204 °C | – | –
CCn1c(=O)c(CCC(=O)O)c(-c2cccc(Br)c2)c2ccc(C)nc21 [Example 46, 3-[4-(3-bromophenyl)-1-ethyl-7-methyl-2-oxo-1,2-dihydro-1,8-naphthyridin-3-yl]propanoic acid] | 161 to 162 °C | – | –
CCn1c(=O)c(CCC(=O)O)c(C2CCCCC2)c2ccc(C)nc21 [Example 47, 3-(4-cyclohexyl-1-ethyl-7-methyl-2-oxo-1,2-dihydro-1,8-naphthyridin-3-yl)propanoic acid] | 155 to 156 °C | good oral absorbability and metabolic stability | hardly metabolized
CCn1c(=O)c(CCCc2nnn[nH]2)c(-c2cccc(Cl)c2)c2ccc(C)nc21 [Example 70, 4-(3-chlorophenyl)-1-ethyl-7-methyl-3-[3-(1H-tetrazol-5-yl)propyl]-1,8-naphthyridin-2(1H)-one] | 155 to 158 °C | – | –
CCn1c(=O)c(CCC(=O)O)c(-c2cccs2)c2ccc(C)nc21 [Example 78] | 188 to 189 °C | – | –
CCn1c(=O)c(CCc2nnn[nH]2)c(-c2cccc(Br)c2)c2ccc(C)nc21 [Example 80] | 194 to 196 °C | – | –
